Results from PMC11501026, “L-Arginine and asymmetric dimethylarginine (ADMA) transport across the mouse blood-brain and blood-CSF barriers: Evidence of saturable transport at both interfaces and CNS to blood efflux” (PLOS ONE, 2024).
Where “and” joins values, the source holds several entries; their conditions need not be identical. Equal entries are not always repeated. Where two headings read alike, the source gives them in different places. Each block holds one molecule with its values, some of them ahead of it.

What was measured:
[1] = capillary depletion analysis after in situ brain perfusion; type: in vivo, mouse; conditions: 10-minute perfusion; for Kin: single-time point analysis, corrected for [^14C]-sucrose
Procedure: The microvasculature within a sample of brain tissue can be separated from the brain parenchyma using capillary depletion analysis. Following perfusion, the remaining brain tissue after microdissection of the regions described above (typically 200–300 mg) underwent capillary depletion following a method modified for mouse. […]

[2] = octanol:saline partition coefficient; conditions: pH 7.4; for octanol-saline partition coefficient: mean ± SEM of 3 tubes
Procedure: (§6) The lipophilicity of the radiolabelled test molecules was also measured by means of an octanol:saline partition coefficient. […] Centrifugation separated the hydrophobic (octanol) phase and hydrophilic (saline) phase and 100 μL samples in triplicate were taken for radioactive liquid scintillation counting on a Tricarb 2900TR liquid scintillation counter (Perkin-Elmer; Boston, MA, USA). The partition coefficient was calculated as the ratio of radioactivity in the octanol phase to the radioactivity in the aqueous phase.

[3] = in situ brain/choroid plexus perfusion: CNS uptake of [^3H]-arginine, [^3H]-ADMA and [^14C]-sucrose (multiple-time and single-time uptake analysis); conditions: for [^3H]-ADMA/ [^3H]-arginine, rate of uptake / Kin: 10-minute perfusion; for Kin: single-time point analysis, corrected for [^14C]-sucrose; for ability to cross the blood-brain and blood-CSF barriers: in situ perfusion; for Kp at 30 min, […] / Kp at […], […]: male, BALB/c, mouse
Procedure: All animals used in procedures were adult male BALB/c mice (between 23 g and 25 g) sourced from Harlan Laboratories, Oxon, UK, unless otherwise stated.
Animals were weighed immediately before the administration of the anaesthetic to ensure correct dosage. Domitor® (medetomidine hydrochloride) and Vetalar® (ketamine) were both purchased from Harlan Laboratories (Cambridge, UK). All animals were terminally anaesthetised (2 mg/kg Domitor® and 150 mg/kg Vetalar® injected intraperitoneally), and a lack of self-righting and paw-withdrawal reflexes (as surrogate indicators of consciousness) thoroughly checked prior to and during all procedures. If needed, additional anaesthetic was administered via the same route. […] At the end of the in situ brain perfusion procedure the animal was killed by decapitated under non-recovery anaesthesia. Animals were heparinised with 100 units heparin (in 0.9% m/v NaCl(aq), Harlan Laboratories; Oxon, UK), administered via the intraperitoneal route prior to surgery.
The in situ brain/choroid plexus perfusion method is designed to directly perfuse the brain with artificial plasma via a cannula placed in the heart. Artificial plasma is prepared to mimic the ionic composition of blood, and transporter inhibitors can be added in known concentrations and delivered to the brain for defined periods of time.
The left ventricle of the heart was cannulated with a 25G x 10 mm butterfly-winged needle connected to the perfusion circuit. […] The right atrium of the heart was sectioned to allow outflow of the artificial plasma. […] Radiolabelled and unlabelled test molecules were infused into the inflowing artificial plasma for periods up to 30 minutes.
At the set perfusion time a CSF sample was taken by inserting a pulled glass micropipette connected to silicon tubing and a syringe into the cisterna magna. Gentle suction was applied, and CSF was withdrawn. Only clear CSF samples were processed and taken for analysis. Samples contaminated with blood were discarded. The animal was then decapitated and the brain removed. Specific brain samples including the circumventricular organs (CVOs) were taken using a Leica S4E L2 stereomicroscope (Leica; Buckinghamshire, UK). The brain samples included the frontal cortex, caudate nucleus, occipital cortex, hippocampus, hypothalamus, thalamus, pons and cerebellum. The CVOs included the choroid plexus, pituitary gland and pineal gland.
All samples (brain regions, capillary depletion brain homogenate, pellet and supernatant, CVOs, CSF and plasma samples) were solubilised in 0.5 mL tissue solubiliser (Solvable; Perkin-Elmer; Boston, MA, USA). After incubating the samples at room temperature for 48 h, 4 mL scintillation fluid (Lumasafe®; Perkin-Elmer; Boston, MA, USA) was added to each before vigorous vortexing.

[4] = tested on: [^3H]-arginine transport across the blood-brain and blood-CSF barriers; assay: self-inhibition, in situ perfusion: [^3H]-arginine with 100 μM unlabelled L-arginine; type: in vivo, mouse
Procedure: (§1) Self-inhibition experiments were also performed. […] Cross-competition experiments were also performed.
(§2) The percentage change in the RTissue uptake values achieved in the absence or presence of an unlabelled inhibitor can be calculated by means of Eq 4.
(§3) %change=RTissue−RInhibition/RTissue×100 Eq 4
(§4) We define RInhibition as the RTissue uptake in the presence of an inhibitor in the artificial plasma.
(§5) A decrease in the uptake of radiolabelled solute in the presence of unlabelled inhibitor is indicative of a saturable influx transport system. Conversely, an increase in the uptake of radiolabelled solute in the presence of unlabelled inhibitor is indicative of a saturable efflux transport system.

[5] = tested on: [^3H]-ADMA transport across the blood-brain and blood-CSF barriers; assay: cross-inhibition, in situ perfusion: [^3H]-ADMA with 100 μM unlabelled L-arginine; type: in vivo, mouse; conditions: for inhibition of [^3H]-ADMA uptake: 100 μM unlabelled L-arginine; for inhibition at 100 µM: Mus musculus
Procedure: as §1, §2, §3, §4, §5

[6] = pH 7.4
Procedure: as §6

CAT1 = conditions: HEK293 overexpressing CAT1; read-out: IC50, inhibition of CAT1-mediated cellular uptake of ADMA; cited from earlier work
[7] = 500 μM; isolated incubated rat choroid plexus; cited from earlier work
hCMEC/D3 cells = conditions: [^3H]-arginine 7 nM; hCMEC/D3 accumulation; cited from earlier work
[8] = 100μM unlabelled L-arginine, CSF, 10 minutes

[^3H]-ADMA/ [^3H]-arginine, rate of uptake ([1]; Homogenate): 31.9%
Kin ([1]; Homogenate): 1.27 ± 0.56 µL/min/g
[^3H]-ADMA/ [^3H]-arginine, rate of uptake ([1]; Pellet): 11.4%
Kin ([1]; Pellet): 0.08 ± 0.20 µL/min/g
[^3H]-ADMA/ [^3H]-arginine, rate of uptake ([1]; Supernatant): 36.6%
Kin ([1]; Supernatant): 0.86 ± 0.16 µL/min/g
octanol-saline partition coefficient, single tube ([2]; Tube A, B or C): 0.00217 and 0.00237 and 0.00225
octanol-saline partition coefficient [2]: 0.00226±0.00006
octanol-saline partition coefficient ([2]; listed as 3H ADMA): 0.00226
[^3H]-ADMA/ [^3H]-arginine, rate of uptake ([3]; CSF): 249.5%
uptake into the CSF (CSF to plasma) ([3]; CSF, […], data uncorrected for [^14C]-sucrose): approximately 4%
Kin ([3]; CSF): 2.70 ± 0.90 µL/min/g
[^3H]-ADMA/ [^3H]-arginine, rate of uptake ([3]; Caudate nucleus): 44.6%
Kin ([3]; Caudate nucleus): 2.41 ± 0.29 µL/min/g
[^3H]-ADMA/ [^3H]-arginine, rate of uptake ([3]; Cerebellum): 31.7%
Kin ([3]; Cerebellum): 1.62 ± 0.19 µL/min/g
[^3H]-ADMA/ [^3H]-arginine, rate of uptake ([3]; Frontal Cortex): 42.7%
Kin ([3]; Frontal Cortex): 2.49 ± 0.35 µL/min/g
[^3H]-ADMA/ [^3H]-arginine, rate of uptake ([3]; Hippocampus): 46.1%
Kin ([3]; Hippocampus): 2.17 ± 0.17 µL/min/g
[^3H]-ADMA/ [^3H]-arginine, rate of uptake ([3]; Hypothalamus): 41.9%
Kin ([3]; Hypothalamus): 3.04 ± 0.30 µL/min/g
[^3H]-ADMA/ [^3H]-arginine, rate of uptake ([3]; Occipital Cortex): 45.2%
Kin ([3]; Occipital Cortex): 2.25 ± 0.16 µL/min/g
[^3H]-ADMA/ [^3H]-arginine, rate of uptake ([3]; Pons): 44.2%
Kin ([3]; Pons): 2.46 ± 0.34 µL/min/g
[^3H]-ADMA/ [^3H]-arginine, rate of uptake ([3]; Thalamus): 35.8%
Kin ([3]; Thalamus): 2.10 ± 0.17 µL/min/g
distribution into the choroid plexus (tissue to plasma) ([3]; 30 minutes): approximately 40%
distribution into the choroid plexus (tissue to plasma) ([3]; peak at 10 minutes): approximately 240%
distribution (RBRAIN, tissue to plasma) corrected for [^14C]-sucrose ([3]; frontal cortex, 20 minutes): 27.64±4.30%
distribution (RBRAIN, tissue to plasma) corrected for [^14C]-sucrose ([3]; frontal cortex, 30 minutes): 10.41±2.77%
distribution (RBRAIN, tissue to plasma) corrected for [^14C]-sucrose ([3]; frontal cortex, […]): 9.86±1.43%
CNS-to-blood efflux ([3]; multiple-time uptake studies, loss of linearity): significant CNS-to-blood efflux
Molecule: [^3H]-ADMA [reference compound]
ability to cross the blood-brain and blood-CSF barriers [3]: can cross the blood-brain barrier (BBB) and the blood-CSF barrier

Molecule: N=C(N)NCCC[C@H](N)C(=O)O [L-arginine]
inhibition of [^3H]-arginine uptake [4, 8]: 62.2%
inhibition of [^3H]-arginine uptake ([4]; 100μM unlabelled arginine, average of capillary depletion samples, 10 minutes): approximately 56%
inhibition of [^3H]-arginine uptake ([4]; 100μM unlabelled arginine, average of eight brain regions, 10-minute perfusion): approximately 67%
inhibition of [^3H]-arginine distribution ([4]; 100μM unlabelled arginine, choroid plexus, 10 minutes): 57.3%
inhibition of [^3H]-arginine distribution ([4]; 100μM unlabelled arginine, pineal gland, 10 minutes): 39.4%
inhibition of [^3H]-arginine distribution ([4]; 100μM unlabelled arginine, pituitary gland, 10 minutes): 48.1%
inhibition of [^3H]-ADMA uptake ([5]; CSF, pineal gland, choroid plexus and pituitary gland, 10 minutes): up to 78.6%
effect on [^3H]-ADMA distribution [5, 8]: no effect
inhibition of [^3H]-ADMA uptake ([5]; brain regions, 10 minutes): up to 80.4%
inhibition at 100 µM ([5]; read-out: inhibition of [^3H]-ADMA distribution): ≤ 80.8%
octanol-saline partition coefficient [6]: 0.00149±0.00016
IC50 (CAT1): 227 µM

Molecule: N=C(N)NCCC[C@H](N)C(=O)O [arginine]
inhibition at 100 µM ([5]; read-out: inhibition of [^3H]-ADMA (62.5 nM) transport): 64.3 to 80.8%

Molecule: CNC(=N)NCCC[C@H](N)C(=O)O [N^G-methyl-L-arginine]
effect on [^3H]-arginine uptake [7]: can be inhibited

Molecule: N=C(N)NCCC[C@H](N)C(=O)O [[^3H]-arginine, reference compound]
Kin ([1]; Homogenate): 3.97 ± 0.67 µL/min/g
Kin ([1]; Pellet): 0.70 ± 0.10 µL/min/g
Kin ([1]; Supernatant): 2.35 ± 0.42 µL/min/g
ability to cross brain capillary endothelial cell membranes compared to [^3H]-ADMA (38 nM) (hCMEC/D3 cells): more than -three to -five-fold
Kin ([3]; CSF): 1.08 ± 0.24 µL/min/g
Kin ([3]; Caudate nucleus): 5.40 ± 0.67 µL/min/g
Kin ([3]; Cerebellum): 5.10 ± 0.50 µL/min/g
Kin ([3]; Frontal Cortex): 5.84 ± 0.86 µL/min/g
Kin ([3]; Hippocampus): 4.72 ± 0.56 µL/min/g
Kin ([3]; Hypothalamus): 7.26 ± 1.76 µL/min/g
Kin ([3]; Occipital Cortex): 4.98 ± 0.72 µL/min/g
Kin ([3]; Pons): 5.58 ± 0.97 µL/min/g
Kin ([3]; Thalamus): 5.87 ± 1.07 µL/min/g
ability to cross the BBB in situ relative to [^3H]-ADMA ([3]; eight brain regions and capillary depletion samples): more than two-fold in most cases
ability to cross the blood-brain and blood-CSF barriers [3]: can cross the blood-brain barrier (BBB) and the blood-CSF barrier
Kp at 30 min, […] ([3]; CSF): 1.2 ± 0.251
Kp at […], […] ([3]; CSF): 0.0441 ± 0.0141
Kp at 30 min, […] ([3]; frontal cortex): 1.77 ± 0.316
Kp at […], […] ([3]; frontal cortex): 0.29 ± 0.0403
Kp at 30 min, […] ([3]; pons): ~1.85
Vi relative to [^14C]-sucrose space in the same experiment ([3]; multiple-time uptake analysis over 30 minutes, data not shown): up to 13 fold
